In brackets after ≈: the same amount, converted by molar mass. Where two headings read alike, the source gives them in different places.
Assays:
[1] = test system: Streptococcus pyogenes C203; assay: ED50 in mice experimentally infected with S. pyogenes C203 (Table XI); type: in vivo; details: Streptococcus pyogenes, doses given 1 and 4 hours postinfection, read-out: ED50
Experimental: The C-20 modified derivatives of this invention have shown in vivo antimicrobial activity against experimentally-induced infections in laboratory animals. When two doses of test compound were administered to mice experimentally infected with S. pyogenes C203, the activity observed was measured as an ED50 value [effective dose in mg/kg to protect 50% of the test animals: see Warren Wick, et al., J. Bacteriol. 81, 233-235 (1961)].
^a mg/kg × 2; doses given 1 and 4 hours postinfection

Escherichia coli EC14 = assay: MIC, standard agar-dilution assay (Table IX); type: cell-based; details: read-out: MIC
[2] = test system: Streptococcus Group D X66; assay: MIC, standard agar-dilution assay (Table IX); type: cell-based; details: read-out: MIC
[3] = test system: Staphylococcus aureus V41; assay: MIC, standard agar-dilution assay (Table IX); type: cell-based; details: Staphylococcus aureus V41, Penicillin-resistant strain, read-out: MIC
Escherichia coli TEM = assay: MIC, standard agar-dilution assay (Table IX); type: cell-based; details: read-out: MIC
[4] = test system: Haemophilus influenzae 76; assay: MIC, standard agar-dilution assay (Table IX); type: cell-based; details: Haemophilus influenzae 76, Ampicillin-resistant strain, read-out: MIC
[5] = test system: Haemophilus influenzae C.L.; assay: MIC, standard agar-dilution assay (Table IX); type: cell-based; details: Ampicillin-sensitive strain, read-out: MIC
[6] = test system: Staphylococcus epidermidis 222; assay: MIC, standard agar-dilution assay (Table IX); type: cell-based; details: read-out: MIC
[7] = test system: Streptococcus Group D 2041; assay: MIC, standard agar-dilution assay (Table IX); type: cell-based; details: GROUPD2041, read-out: MIC
Escherichia coli N10 = assay: MIC, standard agar-dilution assay (Table IX); type: cell-based; details: read-out: MIC
Mycoplasma synoviae 40A = assay: MIC, broth-dilution microtiter test (Table X); type: cell-based; details: Mycoplasmopsis synoviae, read-out: MIC
From the text: (§1) The MIC's in Table X were obtained using conventional broth-dilution microtiter tests.

[8] = test system: Pasteurella hemolytica 22C; assay: MIC, broth-dilution microtiter test (Table X); type: cell-based; details: read-out: MIC
From the text: as §1

[9] = test system: Mycoplasma hyopneumoniae S5972; assay: MIC, broth-dilution microtiter test (Table X); type: cell-based; details: Mesomycoplasma hyopneumoniae, read-out: MIC
From the text: as §1

[10] = test system: Pasteurella multocida 17E; assay: MIC, broth-dilution microtiter test (Table X); type: cell-based; details: Bovine isolate, read-out: MIC
From the text: as §1

Streptococcus sp. 19F = assay: MIC, broth-dilution microtiter test (Table X); type: cell-based; details: read-out: MIC
From the text: as §1

[11] = test system: Pasteurella multocida 60A; assay: MIC, broth-dilution microtiter test (Table X); type: cell-based; details: Avian isolate, read-out: MIC
From the text: as §1

Staphylococcus aureus = assay: MIC, broth-dilution microtiter test (Table X); type: cell-based; details: read-out: MIC
From the text: as §1

Mycoplasma hyorhinis 29E = assay: MIC, broth-dilution microtiter test (Table X); type: cell-based; details: read-out: MIC
From the text: as §1

[12] = test system: Mycoplasma gallisepticum 29C; assay: MIC, broth-dilution microtiter test (Table X); type: cell-based; details: Mycoplasmoides gallisepticum, read-out: MIC
From the text: as §1

[13] = test system: Staphylococcus aureus S13E; assay: MIC, standard agar-dilution assay (Table IX); type: cell-based; details: Staphylococcus aureus, S13E
[14] = test system: Staphylococcus aureus X400; assay: MIC, standard agar-dilution assay (Table IX); type: cell-based; details: Staphylococcus aureus X400, Methicillin-resistant strain, read-out: MIC
[15] = test system: Staphylococcus epidermidis EPI1; assay: MIC, standard agar-dilution assay (Table IX); type: cell-based
Klebsiella X26 = assay: MIC, standard agar-dilution assay (Table IX); type: cell-based; details: read-out: MIC
[16] = test system: Streptococcus pneumoniae Park I; assay: MIC, standard agar-dilution assay (Table IX); type: cell-based
Staphyloccus aureus X1.1 = assay: MIC, standard agar-dilution assay (Table IX); type: cell-based, Staphylococcus aureus; details: Staphylococcus aureus, read-out: MIC
[17] = test system: Streptococcus pyogenes C203; assay: MIC, standard agar-dilution assay (Table IX); type: cell-based; details: read-out: MIC
[18] = Staphylococcus epidermidis EPI1, agar-dilution, read-out: MIC
[19] = Streptococcus pneumoniae Park I, agar-dilution, read-out: MIC

SMILES | ED50 ([1]; C203, Oral) | ED50 ([1]; C203, sc, Subcutaneous) | MIC (Escherichia coli EC14) | MIC [2] | MIC [3] | MIC (Escherichia coli TEM) | MIC [4] | MIC [5] | MIC [6] | MIC [7] | MIC (Escherichia coli N10) | MIC (Mycoplasma synoviae 40A) | MIC [8] | MIC [9] | MIC [10] | MIC [13] | MIC [14] | MIC (Klebsiella X26) | MIC (Staphyloccus aureus X1.1) | MIC [17] | also measured
CCC1OC(=O)CC(O)C(C)C(OC2OC(C)C(OC3CC(C)(O)C(O)C(C)O3)C(N(C)C)C2O)C(CCN2CC3CCC(CC3)C2)CC(C)C(=O)C=CC(C)=CC1COC1OC(C)C(O)C(OC)C1OC (stereo not shown) [Compound T13, 20-DH-DO-20-(3-azabicyclo[3.2.2]nonan-3-yl)tylosin] | 30 mg/kg | > 10 mg/kg | > 128 µg/mL | 128 µg/mL (≈ 125 µM) | 4 µg/mL (≈ 3.9 µM) | > 128 µg/mL | 128 µg/mL (≈ 125 µM) | 128 µg/mL (≈ 125 µM) | 2 µg/mL (≈ 1.95 µM) | > 128 µg/mL | > 128 µg/mL | 1.56 µg/mL (≈ 1.52 µM) | 50 µg/mL (≈ 48.8 µM) | 25 µg/mL (≈ 24.4 µM) | > 50 µg/mL | 4 µg/mL (≈ 3.9 µM) | 8 µg/mL (≈ 7.8 µM) | > 128 µg/mL | 4 µg/mL (≈ 3.9 µM) | 4 µg/mL (≈ 3.9 µM) | MIC (Streptococcus sp. 19F): 50 µg/mL (≈ 48.8 µM); MIC [11]: > 50 µg/mL; MIC (Staphylococcus aureus): 6.25 µg/mL (≈ 6.1 µM); MIC (Mycoplasma hyorhinis 29E): > 50 µg/mL; MIC [12]: 1.56 µg/mL (≈ 1.52 µM); MIC ([15]; Staphylococcus epidermidis, EPI1): 4 µg/mL (≈ 3.9 µM); MIC ([16]; Streptococcus pneumoniae): 16 µg/mL (≈ 15.6 µM)
CCC1OC(=O)CC(O)C(C)C(OC2OC(C)C(OC3CC(C)(O)C(O)C(C)O3)C(N(C)C)C2O)C(CCN2CCCCCCC2)CC(C)C(=O)C=CC(C)=CC1COC1OC(C)C(O)C(OC)C1OC (stereo not shown) [Compound T6, 20-DH-DO-20-(octahydroazocin-1-yl)tylosin] | 44 mg/kg | > 10 mg/kg | > 128 µg/mL | > 128 µg/mL | 4 µg/mL (≈ 3.95 µM) | > 128 µg/mL | > 128 µg/mL | 64 µg/mL (≈ 63.2 µM) | 2 µg/mL (≈ 1.97 µM) | > 128 µg/mL | > 128 µg/mL | 0.78 µg/mL (≈ 0.77 µM) | 50 µg/mL (≈ 49.3 µM) | 12.5 µg/mL (≈ 12.3 µM) | > 50 µg/mL | 4 µg/mL (≈ 3.95 µM) | 8 µg/mL (≈ 7.89 µM) | > 128 µg/mL | 4 µg/mL (≈ 3.95 µM) | 2 µg/mL (≈ 1.97 µM) | MIC (Streptococcus sp. 19F): 50 µg/mL (≈ 49.3 µM); MIC [11]: > 50 µg/mL; MIC (Staphylococcus aureus): 12.5 µg/mL (≈ 12.3 µM); MIC (Mycoplasma hyorhinis 29E): > 50 µg/mL; MIC [12]: 3.12 µg/mL (≈ 3.08 µM); MIC [15, 18]: 4 µg/mL (≈ 3.95 µM); MIC [16, 19]: 8 µg/mL (≈ 7.89 µM)
CCC1OC(=O)CC(O)C(C)C(OC2OC(C)C(O)C(N(C)C)C2O)C(CCN2CCCC(C)(C)C2)CC(C)C(=O)C=CC(C)=CC1COC1OC(C)C(O)C(OC)C1OC (stereo not shown) [Compound D40, 20-DH-DO-20-(3,3-dimethylpiperidin-1-yl)desmycosin] | – | – | 64 µg/mL (≈ 73.6 µM) | 4 µg/mL (≈ 4.6 µM) | 0.5 µg/mL (≈ 0.575 µM) | 16 µg/mL (≈ 18.4 µM) | 8 µg/mL (≈ 9.2 µM) | 4 µg/mL (≈ 4.6 µM) | 0.25 µg/mL (≈ 0.288 µM) | 8 µg/mL (≈ 9.2 µM) | 64 µg/mL (≈ 73.6 µM) | – | – | – | – | 0.5 µg/mL (≈ 0.575 µM) | 0.5 µg/mL (≈ 0.575 µM) | 16 µg/mL (≈ 18.4 µM) | 0.5 µg/mL (≈ 0.575 µM) | 0.25 µg/mL (≈ 0.288 µM) | MIC [15, 18]: 0.5 µg/mL (≈ 0.575 µM); MIC [16, 19]: 2 µg/mL (≈ 2.3 µM)
CCC1OC(=O)CC(O)C(C)C(OC2OC(C)CC(N(C)C)C2O)C(CCN2CCCCCC2)CC(C)C(=O)C=CC(C)=CC1COC1OC(C)C(O)C(OC)C1OC (stereo not shown) [Compound D5a, 20-DH-DO-20-(Hexahydroazepin-1-yl)-4'-deoxydesmycosin] | 34 mg/kg | 1.5 mg/kg | 128 µg/mL (≈ 153 µM) | 2 µg/mL (≈ 2.38 µM) | 0.5 µg/mL (≈ 0.596 µM) | 8 µg/mL (≈ 9.53 µM) | 8 µg/mL (≈ 9.53 µM) | 8 µg/mL (≈ 9.53 µM) | 0.25 µg/mL (≈ 0.298 µM) | 2 µg/mL (≈ 2.38 µM) | 64 µg/mL (≈ 76.3 µM) | 0.195 µg/mL (≈ 0.232 µM) | 3.12 µg/mL (≈ 3.72 µM) | 0.195 µg/mL (≈ 0.232 µM) | 6.25 µg/mL (≈ 7.45 µM) | 0.5 µg/mL (≈ 0.596 µM) | 1 µg/mL (≈ 1.19 µM) | 8 µg/mL (≈ 9.53 µM) | 0.5 µg/mL (≈ 0.596 µM) | 0.25 µg/mL (≈ 0.298 µM) | MIC (Streptococcus sp. 19F): 0.78 µg/mL (≈ 0.93 µM); MIC [11]: 3.12 µg/mL (≈ 3.72 µM); MIC (Staphylococcus aureus): 0.39 µg/mL (≈ 0.465 µM); MIC (Mycoplasma hyorhinis 29E): 3.12 µg/mL (≈ 3.72 µM); MIC [12]: 0.78 µg/mL (≈ 0.93 µM); MIC [15, 18]: 0.5 µg/mL (≈ 0.596 µM); MIC [16, 19]: 0.25 µg/mL (≈ 0.298 µM)

Reference: patent publication US4820695A, “C-20-dihydro-deoxy-(cyclic amino)-derivatives of macrolide antibiotics” (priority 1987, dated 1989)
